Measurements as given in patent publication EP1889831A2, “Diazenedicarboxamides as inhibitors of D-alanine: D-alanine ligase (Ddl)” (University of Ljubljana, priority 2006, dated 2008).
≈ marks a conversion by molar mass, not a printed value.

Tests used:
S.aureus 8325-4 = assay: Determination of antimicrobial activity (MIC, broth microdilution); format: cell-based; settings: IsoSensitest broth, inoculum 10^6 cells per mL, 16 h at 37 °C; unit assumed
Method: (§1) Minimal inhibitory concentrations (MICs) of compounds were determined by broth microdilution in IsoSensitest broth (Oxoid, Basingstoke, UK) using an inoculum of 10^4 cells per mL for E. coli or 10^6 cells per mL for S. aureus. The compounds under investigation were prepared in a 2-fold dilution series in 50% dimethyl sulfoxide (Sigma-Aldrich, Dorset, UK). Microwell plates with 96 wells (Nunc, Fisher Scientific, Loughborough, UK) containing the antimicrobial agent and bacterial suspension were incubated for 16 h at 37 °C in a Spectramax 384 plus microwell plate reader (Molecular Devices, Abingdon, UK), running SOFTmax PRO 3.1.1 software. Optical density readings (600 nm) were taken at 10 min intervals. Plates were shaken for 30 s before each reading. The MIC was taken as the lowest concentration of antimicrobial agent that prevented growth. The invention is further described in connection with the following non-limiting examples: […]

E.coli 1411 = assay: as above; format: cell-based; settings: IsoSensitest broth, inoculum 10^4 cells per mL, 16 h at 37 °C; unit assumed
Method: as §1

E.coli SM 1411 = assay: as above; format: cell-based; settings: IsoSensitest broth, inoculum 10^4 cells per mL, 16 h at 37 °C; unit assumed
Method: as §1

DdlB = DdlB (Escherichia coli, UniProt P07862); assay: Determination of inhibitory activity on DdlB (colorimetric malachite green method); format: biochemical, E. coli; settings: 37 °C, 700 µM D-Ala, 500 µM ATP, 30 min incubation, seven inhibitor concentrations
Method: The D-Ala-adding activity of DdlB ligase was monitored by the detection of orthophosphate generated during the reaction based on the colorimetric malachite green method (Walsh, A. et al. J Bacteriol. 1999, 181: 5395). […] All compounds were soluble in the assay mixture containing 5% DMSO. After 30 min of incubation, 100 µL Biomol® reagent was added. After 5 min, absorbance was read at 650 nm. Residual activity was calculated with respect to a similar assay without inhibitor. IC50 constants were determined by measuring residual activity at seven different inhibitor concentrations and represent the concentration of inhibitors where RA is 50%.

SMILES: O=C(N=NC(=O)NCc1ccccn1)NCCCl
- MIC S.aureus 8325-4 (S.aureus 8325-4): > 256 µg/mL
- MIC E.coli 1411 (E.coli 1411): > 256 µg/mL
- MIC E.coli SM 1411 (E.coli SM 1411): > 256 µg/mL
- IC50 (DdlB): 119 µM

SMILES: O=C(N=NC(=O)NCc1ccccn1)NCc1ccccn1
- MIC S.aureus 8325-4 (S.aureus 8325-4): > 256 µg/mL
- MIC E.coli 1411 (E.coli 1411): > 256 µg/mL
- MIC E.coli SM 1411 (E.coli SM 1411): > 256 µg/mL
- IC50 (DdlB): 158 µM

SMILES: CC(C)c1ccc(NC(=O)N=NC(=O)NCCCl)cc1
- MIC S.aureus 8325-4 (S.aureus 8325-4): > 256 µg/mL
- MIC E.coli 1411 (E.coli 1411): > 256 µg/mL
- MIC E.coli SM 1411 (E.coli SM 1411): > 256 µg/mL
- IC50 (DdlB): 49 µM

SMILES: CCC(C)c1ccc(NC(=O)N=NC(=O)NCCCl)cc1 (stereo not shown)
- MIC S.aureus 8325-4 (S.aureus 8325-4): > 256 µg/mL
- MIC E.coli 1411 (E.coli 1411): > 256 µg/mL
- MIC E.coli SM 1411 (E.coli SM 1411): > 256 µg/mL
- IC50 (DdlB): 25 µM

SMILES: O=C(N=NC(=O)NCc1cccnc1)NCc1cccnc1
- MIC S.aureus 8325-4 (S.aureus 8325-4): > 256 µg/mL
- MIC E.coli 1411 (E.coli 1411): > 256 µg/mL
- MIC E.coli SM 1411 (E.coli SM 1411): > 256 µg/mL
- IC50 (DdlB): 123 µM

SMILES: O=C(N=NC(=O)NCC(Cl)(Cl)Cl)NCC(Cl)(Cl)Cl
- MIC S.aureus 8325-4 (S.aureus 8325-4): > 256 µg/mL
- MIC E.coli 1411 (E.coli 1411): > 256 µg/mL
- MIC E.coli SM 1411 (E.coli SM 1411): > 256 µg/mL
- IC50 (DdlB): 187 µM

SMILES: O=C(/N=N/C(=O)NCCCl)NCCCl
- MIC S.aureus 8325-4 (S.aureus 8325-4): > 256 µg/mL
- MIC E.coli 1411 (E.coli 1411): > 256 µg/mL
- MIC E.coli SM 1411 (E.coli SM 1411): > 256 µg/mL
- IC50 (DdlB): 133 µM

SMILES: CC(C)(C)c1ccc(NC(=O)N=NC(=O)NCCCl)cc1
- MIC S.aureus 8325-4 (S.aureus 8325-4): > 256 µg/mL
- MIC E.coli 1411 (E.coli 1411): > 256 µg/mL
- MIC E.coli SM 1411 (E.coli SM 1411): > 256 µg/mL
- IC50 (DdlB): 37 µM

SMILES: O=C(N=NC(=O)Nc1ccccc1)NCc1ccccn1
- MIC S.aureus 8325-4 (S.aureus 8325-4): 64 µg/mL (≈ 226 µM)
- MIC E.coli 1411 (E.coli 1411): 64 µg/mL (≈ 226 µM)
- MIC E.coli SM 1411 (E.coli SM 1411): 64 µg/mL (≈ 226 µM)
- IC50 (DdlB): 111 µM

SMILES: O=C(N=NC(=O)Nc1cccc(Cl)c1)NCc1cccnc1
- MIC S.aureus 8325-4 (S.aureus 8325-4): 256 µg/mL (≈ 806 µM)
- MIC E.coli 1411 (E.coli 1411): 64 µg/mL (≈ 201 µM)
- MIC E.coli SM 1411 (E.coli SM 1411): 64 µg/mL (≈ 201 µM)
- IC50 (DdlB): 15 µM

SMILES: CC(NC(=O)N=NC(=O)Nc1ccccc1)c1ccccc1 (stereo not shown)
- MIC S.aureus 8325-4 (S.aureus 8325-4): > 256 µg/mL
- MIC E.coli 1411 (E.coli 1411): > 256 µg/mL
- MIC E.coli SM 1411 (E.coli SM 1411): > 256 µg/mL
- IC50 (DdlB): 41 µM

SMILES: O=C(N=NC(=O)Nc1ccccc1)NCc1cccnc1 [drawing 18]
- MIC S.aureus 8325-4 (S.aureus 8325-4): > 256 µg/mL
- MIC E.coli 1411 (E.coli 1411): > 256 µg/mL
- MIC E.coli SM 1411 (E.coli SM 1411): > 256 µg/mL
- IC50 (DdlB): 76 µM

SMILES: O=C(N=NC(=O)Nc1ccccc1)NCc1cccnc1 [drawing 22]
- MIC S.aureus 8325-4 (S.aureus 8325-4): 128 µg/mL (≈ 452 µM)
- MIC E.coli 1411 (E.coli 1411): 64 µg/mL (≈ 226 µM)
- MIC E.coli SM 1411 (E.coli SM 1411): 64 µg/mL (≈ 226 µM)
- IC50 (DdlB): 36 µM
